Reference: patent EP1501797B1, “3-(SUBSTITUTED AMINO)-1H-INDOLE-2-CARBOXYLIC ACID ESTER AND 3-(SUBSTITUTED AMINO)-BENZO[B]THIOPHENE-2-CARBOXYLIC ACID ESTER DERIVATIVES AS INTERLEUKIN-4 GENE EXPRESSION INHIBITORS” (Aventis Pharmaceuticals Inc., priority 2002, dated 2003)

Columns and labels:
[1] = in vitro; settings: mouse, swiss 3t3 fibroblasts
Experimental: A third assay utilized in the present invention involves an in vitro cytotoxicity assay. This assay is used to further characterize the compounds in order to assess toxic activities of compounds on contact inhibited, non-dividing 3T3 fibroblasts. Other toxicity assays may be used.
Contact inhibited Swiss 3T3 fibroblasts are purchased from ATCC. The cells are maintained in 1640 RPMI supplemented with 10% fetal bovine serum (Gibco).
On day of assay, cells are detached from flasks by trypsinization, washed in medium and counted. 100 microliters of 2.5 x 10^4 cells per well are plated into Falcon brand 96 well tissue culture plates and cells incubated at 37°C in presence of 5% CO2 for 2 days or until confluent.
[…] All compound dilutions are assayed in triplicate. […] Cells are returned to the incubator for 2 days.
After 2 day incubation, the 3T3 cells are assayed for viability using an MTS Assay Kit (Promega). Media is added to blank wells for background calculations. After 2 hours incubation in kit reagent, the optical density at 490 nm for each compound and control is determined by plate reader.
Results are expressed as percent cytotoxicity, i.e., (mean OD of compound wells - background OD)/ (mean OD of controls - background).
Note that starting concentration of CsA was 1 µM. […]

[2] = test system: IL-5; experiment: Human primary Th2 cells, anti-CD3/anti-CD28 activated, IL-5 ELISA; format: cell-based; settings: human primary Th2 cells, anti-CD3 and anti-CD28 (Table 5)
Experimental: (§1) Briefly, CD4^+CD45RA^+ T cells, isolated from donor peripheral blood mononuclear cells of healthy donors, are educated in the presence of anti-CD3/CD28 antibodies and various growth factors to obtain either a Thl-like or Th2-like phenotypes as determined by the known cytokine profiles of these two cell types.
(§2) Peripheral blood mononuclear cells (PBMC) are prepared from human blood by Ficoll-Hypacque (Pharmacia). The cells are washed two times in Hanks balanced salt solution (HBSS) and counted.
(§3) Naive T cells (CD4^+/CD45RA ) are prepared by negative selection method using following antibodies and Dynabeads: anti-CD8, anti-HLA-DR, (where HLA means human leucocyte antigen) anti-CD14, anti-CD16, anti-CD19, anti-CD45RO antibodies (all from R&D Systems, 1-2 µg/ml) are added to the cells, and the cells are kept on ice for 30 min. The cells are washed two times in HBSS, and goat anti- mouse Ig-beads, (bead:target ratio, 5:1) are added. The cells and beads are slowly rotated at 4°C for 20 min. (following the protocol supplied from Dynal). The supernatant is removed and fresh goat anti-mouse Ig-beads are added to the supernatant, which is slowly rotated at 4°C for 20 min. The cells are counted and phenotypically characterized by flow cytometric analysis.
(§4) CD4^+/CD45RA^+ cells at a density of 10^6/ml in RPMI, is prepared and added to RPMI medium containing 10% Hyclone serum/ glutamine and 1-2 µg/ml anti-CD28 Ab. The cells are split in two aliquots. For Th1 cells: anti-IL-4 Ab (1-2 µg/ml), IFN-γ (1 µg/ml, or 5000 units/ml) are added to the wells. For Th2 cells: IL-4 (100-200 ng/ml), anti-IFN-γ neutralizing Ab (1-2 µg/ml), anti-IL-12 neutralizing Ab (1-2 µg/ml) are added into the wells. […] The cells are transferred to fresh wells and grown in 200 units/ml IL-2 for 2 weeks by feeding them every other day with IL-2 containing medium and splitting the cultures 1:2 or 1:3 as needed. The degree of polarization is determined by intracellular staining of cells with anti-IFN-γ and anti-IL-4 antibodies from Pharmingen, and using flow cytometry from Becton Dickinson (BD), according to manufacturers description. The cells are stimulated with PHA and alloantigens at day 14 and 28 as described below. Eight days after the second allostimulation the cells can be used for compound screening or frozen for future use. For compound testing, large quantities of Th1 and Th2 cells derived from a given donor (NYTh1 and NYTh2) were expanded and frozen as aliquots in liquid nitrogen. The cells are thawed and cultured as and when needed. The thawed cells are stimulated with alloantigen/PHA combination. The cells are used for compound screening after 8-10 days in culture.
(§5) Re-stimulation by allogeneic cells: Human PBMCs, to be used as alloantigens, are isolated from freshly drawn blood by Ficoll separation. […] Cells are counted and diluted to a final concentration of 2 x 10^6/ml in medium containing 10 µg/ml PHA and 200 units/ml IL-2.
(§6) Ninetysix well Falcon tissue culture plates (Fisher Scientific) are coated with 100 microliters per well of 10 µg/ml anti-CD3 (PharMingen) antibody in phosphate buffered saline (PBS) and stored at 4°C one day before the experiment.
(§7) On the day of assay, anti-CD3 antibody coated plates are washed with PBS once to remove all soluble anti-CD3 antibody. […] All compounds and controls are assayed in triplicates.

[3] = test system: IFN-γ; experiment: Human primary Th2 cells, anti-CD3/anti-CD28 activated, IFN-γ ELISA; format: cell-based; settings: human primary Th2 cells, anti-CD3 and anti-CD28 (Table 5)
Experimental: as §1, §2, §3, §4, §5, §6, §7

[4] = test system: Human Th2 cells; experiment: Human primary Th2 cells, proliferation (viability, MTS assay); format: cell-based; settings: human primary Th2 cells, anti-CD3 and anti-CD28 (Table 5); read-out: Prolif. IC50
Experimental: as §1, §2, §3, §4, §5, §6, §7

[5] = test system: IL-4; experiment: Human primary Th2 cells, anti-CD3/anti-CD28 activated, IL-4 ELISA; format: cell-based; settings: human primary Th2 cells, anti-CD3 and anti-CD28 (Table 5)
Experimental: as §1, §2, §3, §4, §5, §6, §7

[6] = test system: IL-13; experiment: Human primary Th2 cells, anti-CD3/anti-CD28 activated, IL-13 ELISA; format: cell-based; settings: human primary Th2 cells, anti-CD3 and anti-CD28 (Table 5)
Experimental: as §1, §2, §3, §4, §5, §6, §7

Row | SMILES | IC50 [2] | IC50 [3] | IC50 [5] | IC50 [6] | viability at 48 h, 0.001 µM [1] | viability at 48 h, 0.003 µM [1] | viability at 48 h, 0.01 µM [1] | viability at 48 h, 0.03 µM [1] | viability at 48 h, 0.1 µM [1] | viability at 48 h, 3 µM [1] | viability at 48 h, 10 µM [1] | IC50 [4]
1 | C[C@@H]1C[C@H]2[C@@H]3CCC4=CC(=O)C=C[C@]4(C)[C@@]3(F)[C@@H](O)C[C@]2(C)[C@@]1(O)C(=O)CO [Dexamethasone] |  |  |  |  | 100% | 77.9% | 71.6% | 67.8% | 64.2% | 60.7% | 60.5% | 
2 | CN(Cc1cnc2nc(N)nc(N)c2n1)c1ccc(C(=O)N[C@@H](CCC(=O)O)C(=O)O)cc1 [Methotrexate] |  |  |  |  | 113% | 105% | 103% | 100% | 98.9% | 93.8% | 92.4% | 
3 | CN(C(=O)CCc1ccccc1)c1c(C(=O)O)[nH]c2cc(Cl)ccc12 [Reference Example 76, 3-((3-Phenylpropanoyl)methylamino)-1H-6-chloro-indole-2-carboxylic acid] | > 10 µM | > 10 µM | 4 µM | > 10 µM |  |  |  |  |  |  |  | > 10 µM
4 | CN(C(=O)c1ccccc1)c1c(C(=O)O)[nH]c2cc(Cl)cc(Cl)c12 [Reference Example 77, 3-((Benzoyl)methylamino)-4,6-dichloro-1H-indole-2-carboxylic acid] | > 10 µM | > 10 µM | 3.6 µM | > 10 µM |  |  |  |  |  |  |  | > 10 µM
5 | O=C(Nc1c(C(=O)O)[nH]c2cc(Cl)ccc12)c1ccccc1 [Reference Example 78, 3-((Benzoyl)amino)-6-chloro-1H-indole-2-carboxylic acid] | > 10 µM | > 10 µM | 0.3 µM | > 10 µM |  |  |  |  |  |  |  | > 10 µM
6 | CN(C(=O)c1ccc(Cl)cc1)c1c(C(=O)O)[nH]c2cc(Cl)cc(Cl)c12 [Reference Example 80, 3-((4-chlorobenzoyl)methylamino)-4,6-dichloro-1H-indole-2-carboxylic acid] | > 10 µM | > 10 µM | 6 µM | > 10 µM |  |  |  |  |  |  |  | > 10 µM
7 | CN(C(=O)c1ccccc1)c1c(C(=O)O)[nH]c2cc(Cl)c(Cl)cc12 [Reference Example 84, 3-((Benzoyl)methylamino)-5,6-dichloro-1H-indole-2-carboxylic acid] | > 10 µM | > 10 µM | 1 µM | > 10 µM |  |  |  |  |  |  |  | > 10 µM
8 | CCN(C(=O)c1ccccc1)c1c(C(=O)O)[nH]c2cc(Cl)cc(Cl)c12 [Reference Example 85, 3-((Benzoyl)ethlamino)-4,6-dichloro-1H-indole-2-carboxylic acid] | > 10 µM | > 10 µM | 0.9 µM | > 10 µM |  |  |  |  |  |  |  | > 10 µM
9 | CN(C(=O)c1ccccc1)c1c(C(=O)O)[nH]c2cc(F)ccc12 [Reference Example 86, 3-((Benzoyl)methylamino)-6-fluoro-1H-indole-2-carboxylic acid] | > 10 µM | > 10 µM | 1 µM | > 10 µM |  |  |  |  |  |  |  | > 10 µM
10 | CN(C(=O)c1cccc(F)c1)c1c(C(=O)O)[nH]c2cc(Cl)cc(Cl)c12 [Reference Example 88, 3-((3-Fluorobenzoyl)methylamino)-4,6-dichloro-1H-indole-2-carboxylic acid] | > 10 µM | > 10 µM | 2.5 µM | > 10 µM |  |  |  |  |  |  |  | > 10 µM
11 | O=C(O)c1[nH]c2cc(Cl)cc(Cl)c2c1NS(=O)(=O)c1ccccc1 [Reference Example 91, 3-((Phenylsulfonyl)amino)-4,6-dichloro-1H-indole-2-carboxylic acid] | > 10 µM | > 10 µM | 1 µM | > 10 µM |  |  |  |  |  |  |  | > 10 µM
12 | CN(c1c(C(=O)O)[nH]c2cc(Cl)cc(Cl)c12)S(=O)(=O)c1ccccc1 [Reference Example 92, 3-((Phenylsulfonyl)methylamino)-4,6-dichloro-1H-indole-2-carboxylic acid] | > 10 µM | > 10 µM | 0.45 µM | > 10 µM |  |  |  |  |  |  |  | > 10 µM

More lines, main results first:

Row | IC50 [2] | IC50 [3] | IC50 [5] | IC50 [6] | SMILES | viability at 48 h, 0.001 µM [1] | viability at 48 h, 0.003 µM [1] | viability at 48 h, 0.01 µM [1] | viability at 48 h, 0.03 µM [1] | viability at 48 h, 0.1 µM [1] | viability at 48 h, 3 µM [1] | viability at 48 h, 10 µM [1] | IC50 [4]
13 | > 10 µM | > 10 µM | > 10 µM | > 10 µM | CCOC(=O)c1[nH]c2ccccc2c1Nc1ccncc1 [Example 11, 3-(4-pyridinylamino)-1H-indole-2-carboxylic acid, ethyl ester] |  |  |  |  |  |  |  | > 10 µM
14 | > 10 µM | > 10 µM | 5 µM | > 10 µM | CN(C)CCOC(=O)c1[nH]c2cc(Cl)ccc2c1NC(=O)c1ccccc1 [Example 79, 3-((Benzoyl)amino)-6-chloro-1H-indole-2-carboxylic acid 2-dimethylamino-ethyl ester] |  |  |  |  |  |  |  | > 10 µM
15 | 8 µM | > 10 µM | 2.5 µM | > 10 µM | CCOC(=O)c1[nH]c2cc(Cl)cc(Cl)c2c1N(Cc1ccccc1)C(=O)c1ccccc1 [Example 89, 3-((Benzoyl)benzylamino)-4,6-dichloro-1H-indole-2-carboxylic acid ethyl ester] |  |  |  |  |  |  |  | 4 µM
16 | > 10 µM | > 10 µM | 1 µM | > 10 µM | CCOC(=O)c1[nH]c2cc(Cl)cc(Cl)c2c1NS(=O)(=O)c1ccccc1 [Example 90, 3-((Phenylsulfonyl)amino)-4,6-dichloro-1H-indole-2-carboxylic acid ethyl ester] |  |  |  |  |  |  |  | > 10 µM
17 | > 10 µM | > 10 µM | 2 µM | > 10 µM | CCOC(=O)c1c(Nc2ccncc2)c2ccccc2n1C [Reference Example 24A, 1-Methyl-3-(4-pyridinylamino)-1H-indole-2-carboxylic ethyl ester] |  |  |  |  |  |  |  | > 10 µM
18 | 7 µM | 9.5 µM | 6 µM | > 10 µM | O=C(O)c1[nH]c2cc(Cl)cc(Cl)c2c1N(Cc1ccccc1)C(=O)c1ccccc1 [Reference Example 81, 3-((Benzoyl)benzylamino)-4,6-dichloro-1H-indole-2-carboxylic acid] |  |  |  |  |  |  |  | > 10 µM
19 | 2 µM | > 10 µM | 0.6 µM | > 10 µM | O=C(Nc1c(C(=O)O)[nH]c2cc(Cl)cc(Cl)c12)c1ccccc1Cc1ccccc1 [Reference Example 87, 3-((2-Benzylbenzoyl)amino)-4,6-dichloro-1H-indole-2-carboxylic acid] |  |  |  |  |  |  |  | > 10 µM
